Where a name gives a salt, the structure may show the parent alone. Marks after values point to notes of the source that are not given here.
Experiments:
C. elegans [1] = experiment: Camera-based locomotion tracking (repeated dosing); assay type: in vivo, Caenorhabditis elegans; settings: Table 2, day 7 post-reproductive adults; for Cell occupancy ± SEM: squares of 1 mm^2
Text: (§1) Locomotion of C. elegans is characterized by sinusoidal movements (i.e. body bends), and progressively diminishes during adult life. As in other animals, maintenance of coordinated movement is considered a prime health span parameter^5.
To quantify locomotion effects in more detail, we utilized an automated tracking system for C. elegans that is compatible with standard petri plates. The multi-camera tracking system allows for objective quantification of mean locomotion speed, maximal locomotion speed and multiple behavioral parameters via path-based image analysis. The system was utilized similar to Peymen et al^8. Two distinct assays were performed. In a first assay (Table 2), the locomotion effects of Gal, Met and a combination of both compounds was assayed. This allowed to test for synergetic effects between Gal and Met on multiple locomotion parameters. In a second assay (Table 3), we characterized the locomotion effects of the combination of Met with different acetylcholinesterase inhibitors (i.e. Gal, Don and Riv), as well as the combination of Met with the acetylcholinesterase inhibitor-like compound Mem. As such, we were able to test whether there is a class effect of acetylcholinesterase inhibitors as a whole (in combination with Met). Synchronized wild-type animals were grown in the presence of the corresponding compounds at different doses from the L4 stage (i.e. day 0) and FUdR, until the start of the measurement. Animals were re-dosed thrice (at day 2, 4 and 7) via transfer to fresh compound-treated NGM plates. Prior to imaging, for each replicate 20 well-fed living animals were manually transferred from their culture plate to an unseeded NGM plate, and after 5 min transferred to another unseeded NGM plate used for imaging. Image acquisition took place with StreamPix 6 multicamera software (GigE PRO GP11004M camera with KOWA LM16JC10M lens) for 11 min at 2 fps and a constant exposure, after which worms were tracked using custom particle-tracking MATLAB code. For each mobile animal (i.e. an animal that moved for at least 2 min during the imaging period), both mean and maximal locomotion speeds were extracted, as well as the behavioral metrics ‘cell occupancy’ and ‘fraction running’. The latter represents the fraction of time that an animal was detected to be running (as opposed to pausing or turning). Cell occupancy is a metric quantifying the spatial search efficiency of a worm. Cell occupancy values represent the number of unique cells (squares of 1 mm^2) that the worm visited during the imaging period. Both behavioral parameters decline during aging. Experiments were performed in triplicate (or quadruplicate), with 20 worms per condition per replicate. The results were analyzed using multiple t testing, with the Holm-Sidak correction for multiple comparisons, in GraphPad Prism software. The corresponding p-values are referred to as p.

[2] = tested on: glutathione S-transferase 4 (gst-4) gene transcription; experiment: In vivo gene activity assay (gst-4p::GFP reporter); design: species or system Caenorhabditis elegans; settings: GFP fluorescence; treated from L1 until late L4 stage
Text: The transparent body of C. elegans allows for straightforward and non-invasive measurements of in vivo gene transcription via transgenic fluorescent reporters^9. We measured transcription of the gst-4p::GFP C. elegans GFP reporter to gain insight into the intracellular signaling networks that are affected by Met and/or Gal. Additionally, we tested whether Met and Gal have a synergistic or potentiating effect on activation of gst-4 gene transcription.
The gst-4 gene encodes for the cytoprotective and drug-metabolizing enzyme glutathione S-transferase 4 (GST-4). Gst-4 is a direct target of SKN-1, an ortholog of the mammalian Nuclear Factor E2-Related Factor (Nrf2) protein family that is a key transcription factor involved in the protection against oxidative and xenobiotic stresses. […] In C. elegans aging research, transcriptional activation of gst-4 is often used as a read-out for SKN-1 activity. […] GFP fluorescence was quantified using an automated method, as described earlier^11. In short: JMET69 animals with genotype ls[gst-4(1491 bp)::gfp;unc-119(+)];ls[unc-54^p::mCherry;unc-119(+)] were grown in the presence and absence of drugs (i.e. Met and/or Gal) on NGM plates seeded with E. coli OP50, from the L1 until the late L4 stage, before transfer to a 96 well plate for fluorescence quantification. […]

[3] = tested on: wild-type C. elegans N2 strain; experiment: Life span assay, repeated dosing (manual scoring on NGM agar plates); assay type: in vivo, Caenorhabditis elegans; settings: for Decrease MLS versus combo Met25 + Gal100 / Increase MLS versus untreated control / Max LS / Median LS: repeated dosing; for MLS ± SEM (mean life span): repeated dosing from first day of adulthood; for Max LS: day on which 10% of the animals are still alive; for Median LS: day on which 50% of the animals are still alive
Protocol: (§2) The wild-type C. elegans N2 strain was obtained from the Caenorhabditis Genetic Center (University of Minnesota, USA) and was cultivated at 20° C. on standard nematode growth medium (NGM) seeded with a thin layer of Escherichia coli OP50, unless stated otherwise. Life span of C. elegans was measured analogous to methods described earlier^1,2. The first day of adulthood was always recorded as day 0. FUdR (5-fluoro-2′-deoxyuridine, Sigma-Aldrich) was used in all life span assays to avoid progeny production. Multiple independent assays were carried out. A minimum of 100 animals per condition per assay was used, as to ensure sufficient statistical power.
During the ‘repeated dosing assay’, we followed the standard method in the field (i.e. manual inspection of survival of age-synchronized populations on bacteria-coated agar plates^2), which is robust and technically relatively simple. In short, at the onset of adulthood, animals were transferred to standard NGM assay plates (untreated control) or NGM assay plates supplemented with the corresponding compounds at different doses (Table 1). Animals were transferred to fresh standard NGM assay plates or fresh NGM assay plates supplemented with the corresponding compounds at different doses thrice in the first week and weekly thereafter (for a total duration of 33 days). This dosing schedule is in accordance with standardized protocols from the Caenorhabditis Intervention Testing Program (CITP)^4. Met was added to the NGM prior to autoclaving, whereas Gal was pipetted onto the seeded assay plates (at least two hours prior to transferring animals on to the assay plates). A same volume of liquid was added to all plates, also to plates of the untreated control and Met condition (i.e. mock treatment). Animals that crawled off the assay plates or died of internal hatching were censored. The number of live and dead worms was scored every one to two days.

C. elegans [4] = experiment: WorMotel-based locomotion tracking (single dosing); assay type: in vivo, Caenorhabditis elegans; settings: for increase in maximal baseline activity compared to the untreated control: baseline = prior to blue light stimulus; for increase in total number of healthy days (locomotion-based health span) versus untreated control: days with activity >15% of mean maximal activity of untreated control
Protocol: (§3) During the ‘single dosing assay’, we used the WorMotel platform for long-term recurrent imaging of C. elegans^3. This semi-automated platform allows for unbiased longitudinal monitoring of C. elegans aging phenotypes, including daily measurements of survival as well as locomotion quantification. From the onset of adulthood, animals were confined to individual wells in screening plates (i.e. microfabricated WorMotel chips prepared as described in^3) that were seeded with E. coli HT115(DE3) as a food source and supplemented with the corresponding compounds at different doses (Table 1). Four replicate screening plates were assayed, with all four tested conditions present on each screening plate (in randomized locations). Animals were kept on the same screening plates for the duration of the experiment (i.e. 30 days). The time of death is determined as the final time of nonzero movement. Note that this imaging platform is incompatible with repeated dosing. We used the statistical software R to construct Kaplan-Meier survival curves, calculate mean and median life span and carry out all related statistical analyses. To compare survival between two conditions, log-rank tests were used (i.e. survdiff function of the survival package, adjusted for multiple comparisons via the Benjamini-Hochberg method). The corresponding p-values are referred to as plog-rank.
as §1
Each imaging period, the mean and maximum locomotion activity before and after a blue light stimulus are quantified (as described in^3). The resulting activity values are termed ‘baseline locomotion’ and ‘stimulated locomotion’, respectively. […] An increase in ‘healthy days’ is indicative for an increase in locomotion-based healthspan. Results were analyzed using one-way and two-way ANOVAs, with the Holm-Sidak correction for multiple comparisons in GraphPad Prism software. All corresponding p-values are referred to as pANOVA.

[5] = tested on: C. elegans sarcomere myofilaments; experiment: Quantifying muscle morphology and deterioration (myo-3p::MYO-3::GFP, strain RW1596); assay type: in vivo, Caenorhabditis elegans; settings: late adulthood (day 14)
Text: Sarcomeres are fundamental muscle units, responsible for muscle contraction. C. elegans' sarcomeres consist of alternated filaments containing myosin and actin, similar to sarcomeres of vertebrates. While sarcomere myofilaments in the body wall of young animals are organized in parallel symmetric rows, sarcomere myofilaments in older animals become progressively disorganized with a more irregular shape and orientation.
By using a transgenic reporter strain that has a fusion of myosin heavy chain with fluorescent GFP (strain RW1596; myo-3p::MYO-3::GFP), muscle structure of C. elegans can be visualized in vivo. Combined with confocal microscopy and bioinformatic analysis this offers not only qualitative, but also quantitative readouts for the assessment of the organizational level of muscle fibers. An analytical method to quantify muscle deterioration has been optimized at the laboratory of Prof. Bart Braeckman (UGent; unpublished data). We used this technique to verify whether animals treated with Gal and/or Met, display a muscle phenotype resembling that of younger untreated individuals. […]
For each animal, the two morphological metrics ‘aspect ratio’ and ‘smoothness’ were extracted. […] The aspect ratio is calculated as the ratio of the length of the major axis (=length) and the length of the minor axis (=width) for individual myofilaments within a sarcomere. […]

[6] = tested on: wild-type C. elegans N2 strain; experiment: Life span assay, single dosing (WorMotel platform); assay type: in vivo, Caenorhabditis elegans; settings: for Decrease MLS versus combo Met25 + Gal100 / Increase MLS versus untreated control / Max LS / Median LS / survival compared to the untreated control: single dosing; for MLS ± SEM (mean life span): single dosing at first day of adulthood, pooled assays; for Max LS: day on which 10% of the animals are still alive; for Median LS: day on which 50% of the animals are still alive; for survival compared to the untreated control: log-rank test
Protocol: as §2, §3

With `COc1ccc2c3c1O[C@H]1C[C@@H](O)C=C[C@@]31CCN(C)C2` [Gal 100, Galantamine hydrobromide] the “Fraction running ± SEM” value (C. elegans [1]) was 48 ± 2 ^NS %, the “Maximal speed ± SEM” value (C. elegans [1]) was 270 ± 17 ^NS μm/s and the “Mean speed ± SEM” value (C. elegans [1]) was 48 ± 4 ^NS μm/s. The “Cell occupancy ± SEM” value (C. elegans [1]) was 11 ± 1 ^NS unique areas visited, the “gst-4 transcription level change compared to the untreated control” value [2] was “+9%” and the “Decrease MLS versus combo Met25 + Gal100” value [3] was −12.5% ****. For the same compound, the “Increase MLS versus untreated control” value [3] was “+6.8% *”, the “MLS ± SEM (mean life span)” value [3] was 16.87 ± 0.32 days and the “Max LS” value [3] was 22 days. The “Median LS” value [3] was 17 days, the “increase in maximal baseline activity compared to the untreated control” value (C. elegans [4]) was 15% and the “increase in total number of healthy days (locomotion-based health span) versus untreated control” value (C. elegans [4]) was “+20%”. The “sarcomere aspect ratio versus untreated control (in words)” value [5] was “no significant increases in aspect ratio”, the “Decrease MLS versus combo Met25 + Gal100” value [6] was −3.9% * and the “Increase MLS versus untreated control” value [6] was “+12.8% ***”. The “MLS ± SEM (mean life span)” value [6] was 19.63 ± 0.44 days, the “Max LS” value [6] was 27 days and the “Median LS” value [6] was 20 days. The “survival compared to the untreated control” value [6] was “significantly increased survival”.
`CN(C)C(=N)NC(=N)N.Cl` [Met 25, 1,1-Dimethylbiguanide hydrochloride] was tested, and the “Fraction running ± SEM” value (C. elegans [1]) was 67 ± 2 %, the “Maximal speed ± SEM” value (C. elegans [1]) was 262 ± 8 ^NS μm/s and the “Mean speed ± SEM” value (C. elegans [1]) was 102 ± 5 μm/s. The “Cell occupancy ± SEM” value (C. elegans [1]) was 28 ± 3 unique areas visited, the “gst-4 transcription level change compared to the untreated control” value [2] was “+26%” and the “Decrease MLS versus combo Met25 + Gal100” value [3] was −8.3%. The “Increase MLS versus untreated control” value [3] was “+11.9% ****”, the “MLS ± SEM (mean life span)” value [3] was 17.68 ± 0.50 days and the “Max LS” value [3] was 23 days. For the same compound, the “Median LS” value [3] was 18 days, the “increase in maximal baseline activity compared to the untreated control” value (C. elegans [4]) was 35% and the “increase in total number of healthy days (locomotion-based health span) versus untreated control” value (C. elegans [4]) was “+14%”. The “sarcomere aspect ratio versus untreated control (in words)” value [5] was “no significant increases in aspect ratio”, the “Decrease MLS versus combo Met25 + Gal100” value [6] was −6.7% * and the “Increase MLS versus untreated control” value [6] was “+9.6% **”. The “MLS ± SEM (mean life span)” value [6] was 19.08 ± 0.58 days, the “Max LS” value [6] was 28 days and the “Median LS” value [6] was 20 days. For the same compound, the “survival compared to the untreated control” value [6] was “significantly increased survival”.

Source: US20210267918A1, “PHARMACEUTICAL COMBINATION FOR USE IN AGE-RELATED AND/OR DEGENERATIVE DISEASES” (priority 2018, published 2021)
